Data: patent US7304168B2, “Photo-caged fluorescent molecules” (Board of Regents, University of Texas System, priority 2003, dated 2007)

How the values were obtained:
[1] = 740 nm, 345 mW laser power exiting the cuvette; cited from earlier work
[2] = Two photon uncaging action cross section at 740 nm with Bhc-OAc as reference; assay type: physicochemical; conditions: for photolysis after 20 minutes of continuous illumination: 345 mW exiting the cuvette; for sensitivity to two photon uncaging relative to 2a: average power 590 mW exiting the cuvette
Protocol: To calculate δu, 6-bromo-7-hydroxycoumarin-4-ylmethyl acetate (Bhc-OAc) was used as a reference compound (Furuta, 1999; Fedoryak, 2002). The compounds tested included Compound 2a from FIG. 3 and a compound 2a′ having the structure:
Bhc-OAc, Compound 2a, and Compound 2a′ in microcuvettes were illuminated using focused infrared light ([…]) from a femtosecond-pulsed and mode locked Ti-sapphire laser. The two photon uncaging action cross section was determined using the equation (Furuta, 1999):
[formula] • where Np is the number of product molecules formed per unit time, <I0^2(t)> is the mean squared light intensity, S(r) is a unitless spatial distribution function, and the integral is over the volume of the microcuvet, and Cs is the substrate concentration. If caged compounds are photolyzed under the identical setting with the same two photon laser power, then the term <I0^2(t)>∫S^2(r)dV should be about the same for different cages. Thus, δu^a of cage “a” can be determined by comparing its rate of product formation (Np^a) with that of reference cage “b” with known δu^b according to the equation: […]
The formation of coumarins after two photon photolysis of Compound 2a and […] was quantified similarly as in the one photon uncaging experiments by measuring the fluorescence enhancement. The photolysis of Bhc-OAc was quantified by HPLC analysis as described (Furuta, 1999; Fedoryak, 2002).
Two photon photolysis was carried out using a procedure similar to the one first described by Furuta et al (Furuta, 1999). Samples in 100 mM Mops buffer (pH 7.3) were transferred to a microcuvette (Hellma 105.251-QS). The filling volume of the cuvette was […]. The laser beam from a fs-pulsed and mode-locked Ti-Sapphire laser (Mira 900-F pumped by a Verdi, Coherent, Santa Clara, Calif.) was focused into the center of the cuvette with a focusing lens (01 LPX 029/077, focal length 25 mm, Melles-Griot, Carlsbad, Calif.). After irradiation with 740 nm light, samples were collected and the formation of the products was quantified. The formation of coumarins from caged precursors 2a or 2a′ (initial concentration 10 μM) was measured by fluorescence spectroscopy. The photolysis of Bhc-OAc (initial concentration 100 μM) was followed by HPLC. Two-photon uncaging cross sections (δu) were calculated from equation (2) and the reported δu of 0.72 GM for Bhc-OAc at 345 mW laser power exiting the cuvette (Fedoryak, 2002).

[3] = at 730 nm; cited from earlier work
[4] = tested on: human fibroblasts; conditions: human fibroblasts loaded with Fluo-3/AM
Source text: Human fibroblasts were loaded with the calcium indicator Fluo-3/AM (Molecular Probes), and a caged and cell permeable coumarin derivative (compound 8, FIG. 6). […] Optical filters were used (coumarin excitation, 440AF21 (Omega Optical); Fluo-3 excitation, 490/20; UV uncaging 330WB80; dichroic, 61010bs; emission filter, 84101 special; all of Chroma Technology unless stated otherwise).
Fluo-3 measures cell calcium concentrations.

[5] = tested on: gap junction transfers in coupled human fibroblast cells; experiment: Inhibition of junctional coumarin (HCCC2) transfer after localized uncaging; assay type: cell-based; conditions: human fibroblasts loaded with NPE-HCCC2-AM (1 μM); added prior to the third uncaging
Protocol: Coupled human fibroblast cells were loaded with NPE-HCCC2-AM (1 μM) for 40 minutes in Hanks Balanced Saline (HBS with 10 mM Hepes, 5.5 mM glucose, pH 7.3), then washed and incubated for another 15 minutes before imaging on an inverted fluorescence microscope. The time course of fluorescent intensities of HCCC2 after it was locally uncaged in the “donor” cells is shown in FIG. 10 (FHCCC2, arbitrary units, 425±5 nm excitation, 460±10 nm emission). A field diaphragm was placed in the excitation light path inside the microscope. The iris of the field diaphragm was reduced to a minimum to limit the area of UV illumination (360±20 nm) to a fraction of a cell during localized uncagings. Digital fluorescence images were taken every 15 seconds. The rates of HCCC2 diffusion are indicated under each episode of transfer. α-Glycyrrhetinic (“αG”) was added to the cells prior to the third uncaging. αG is a classical inhibitor of gap junction transfers (Rozental, et al., 2001).

## CC(=O)OCc1cc(=O)oc2cc(O)c(Br)cc12 [Bhc-OAc, 6-bromo-7-hydroxycoumarin-4-ylmethyl acetate]
[1]
  reported δu, two photon uncaging cross section: 0.72 GM
[2]
  photolysis after 20 minutes of continuous illumination: 10.6%
  sensitivity to two photon uncaging relative to 2a: about two times more sensitive to two photon uncaging than 2a

## COC(=O)CC[C@@H](NC(=O)c1cc2ccc(OC(C)c3ccccc3[N+](=O)[O-])cc2oc1=O)C(=O)OC (stereo partly drawn) [Compound 2a′]
[2]
  photolysis after 20 minutes of continuous illumination: 10%
  sensitivity to two photon uncaging relative to 2a: about two times more sensitive to two photon uncaging than 2a
[2]; estimated against Bhc-OAc (0.72 GM)
  δu, two photon uncaging action cross section: 0.68 GM

## COc1ccc([N+](=O)[O-])c2c1CCN2C(=O)CC[C@H](N)C(=O)O [MNI caged glutamate]
[3]
  δu, two photon uncaging cross section: 0.06 GM

## NCCc1c[nH]cn1 [histamine]
[4]
  intracellular calcium (Fluo-3 channel): induced intracellular calcium increase

## CC1(C)[C@@H](O)CC[C@]2(C)[C@H]3C(=O)C=C4[C@H]5C[C@@](C)(C(=O)O)CC[C@]5(C)CC[C@@]4(C)[C@]3(C)CC[C@@H]12 [αG, α-glycyrrhetinic acid]
[5]
  inhibition of coumarin transfer through gap junctions: susceptible to inhibition by αG
